For assay [1], the system named is Staphylococcus aureus (S. aureus) 11540 strain. Nature of the assay: standard microdilution MIC, S. aureus. Type of assay: cell-based. Particulars: Staphylococcus aureus. The method, then:
(§1) The in vitro activity of the compounds of the present disclosure can be determined. Antimicrobial testing is typically performed to determine the minimum inhibitory concentration (MIC). Minimum inhibitory concentrations (MICs) are determined by the microdilution method in a final volume of 100 μl according to protocols outlined by The Clinical and Laboratory Standards Institute (CLSI). Performance standards for reference strains are assessed within the same experimental design to maintain quality control. See, for example, Clinical Laboratory Standards Institute: Methods for dilution antimicrobial susceptibility tests for bacteria that grow aerobically M7-A8. Approved Standard-Eighth Edition. Wayne, Pa.: CLSI; December 2008; and Clinical Laboratory Standards Institute: Performance Standards for Antimicrobial Susceptibility Testing M100-S20; Approved Standard-Twentieth Edition. Wayne, Pa.: CLSI; June 2010.
(§2) The compounds of the present disclosure were tested for antimicrobial activity. The Compounds 1-23 were run against Eschericia coli (E. coli) strain ATCC25922 and against Staphylococcus aureus (S. aureus) 11540 strain using a standard microdilution assay to determine minimum inhibitory concentrations (MICs). […] It will be recognized by one skilled in the art that the compounds can be assessed against other bacterial organisms and that the presentation of data for activity against Eschericia coli and Staphylococcus aureus are illustrative and in no way is intended to limit the scope of the present disclosure. The compounds of the present disclosure can be assayed against a range of other microorganisms depending upon the performance activity desired to be gathered. Furthermore, the “+” and “−” representation and the selection of a cutoff value of 16 micrograms/mL is also illustrative and in no way is intended to limit the scope of the present disclosure.
On the technique in general: Broth dilution looks for growth in wells or tubes with falling amounts of substance.

Assay [2] concerns Eschericia coli (E. coli) strain ATCC25922. Put plainly: standard microdilution MIC, E. coli. As to conditions: Escherichia coli. The assay is classed as cell-based, Escherichia coli. The method, then:
as §1, §2

The test system of assay [3] is Chinese hamster ovary (CHO) cells. Put plainly: cytotoxicity against CHO cell line (Cell Titer Blue). Type of assay: cell-based. Particulars: Cricetulus griseus, 24 h, CHO-K1 cells, 24 hours incubation, percent cell kill. The method, then:
The compounds of the present disclosure were tested for cytotoxicity against Chinese hamster ovary (CHO) cells.
The assay was performed by seeding CHO—K1 in F12K medium containing 13.33% Fetal Bovine Serum […]. 37.5 μl of cell suspension at a concentration of 9,500 cells/well was plated into each column of a 384-well black clear bottom assay plate with the exception of a negative (no cell) control column, and allowed to adhere for 2 hours. The culture media was then removed from the 175 cm^2 flask(s) and the cell monolayer washed with 10 mL of Phosphate Buffered Saline PBS. 3 mL of Cellstripper™ was then added and the flask was incubated for approximately 5 min at 37° C. The cells were dissociated by agitation and 7 mL of F 12K medium containing 10% FBS was added to the flask. A homogeneous cell suspension was obtained by trituration of the flask. The cells were counted with a hemocytometer by diluting an aliquot of the cell suspension in PBS with 0.4% trypan blue. Typically, a ratio of 100 μl cell suspension to 1800 μl PBS to 100 μl trypan blue was used.
The volume of cell suspension containing the number of cells needed to seed the plate(s) (15.2 mL containing 3.8×10^6 cells) was calculated and transferred to a 50 mL centrifuge tube with the appropriate volume of media. 37.5 μl of cells were added to each well of the 384 well plate except for the negative (no cell) control column. A cytotoxicity 100-fold dilution plate was then prepared by manually pipetting 18 μl of 100% DMSO into two columns of an empty low volume dilution plate. 2 μl of a 50 mM solution of compounds 1-23 from the translation plate were manually pipetted into the corresponding columns of the 100-fold dilution plate. 10 μl of 100% DMSO was manually pipetted into all remaining columns of the 100-fold plate.
A 4-fold cytotoxicity plate was prepared beforehand by manually pipetting 48 μl of F12K media (without DMSO and without FBS) into each well of a matrix 384 well plate. The test samples in the 100-fold dilution plate were mixed and diluted. Ten 2-fold dilutions were performed for each compound in duplicate. The 384 cannula array then transferred 2 μl to the 48 μl of media in the cytotoxicity 4-fold dilution plate. The array was then mixed and 12.5 μl of samples from the cytotoxicity 4-fold dilution plate were transferred to the 37.5 μl of cells and media. The final top concentration of samples at this point in the procedure was 50 μM with 10 subsequent 1:2 dilutions down to […]. The final DMSO concentration were 1% and the final concentration of FBS was 10%.
Cycloheximide was run as a control. Specifically, Cycloheximide was diluted to 0.1 mM from 100 mM stock […] and was added to the cytotoxicity 100-fold plate. Upon addition to the cell plate, a range of 1 μM to 1 nM of cycloheximide was run.
A column separate from the one (referred to above) that served as the negative control was used for cell control wells to which only media was added.
The plates were then incubated for 24 hours at 37° C. and 5% CO2. […] The two columns used earlier to prepare the 100-fold dilution plate by pipetting 18 μl of 100% DMSO contained the samples tested at 200 μM. After the 24 hour incubation period, the 4 μl of Cell Titer blue was added to each well using a Multichannel Matrix pipettor. The plates were returned to the incubator and incubated for an additional 5 hours. Fluorescence (530 nm excitation wavelength/590 nm emission wavelength) was measured on a Wallac Victor microplate reader.
Cell viability was assessed fluorometrically after a 5 hour incubation with resazurin (Cell Titer Blue™), which is reduced by living cells to the fluorescent resorufin.
The average fluorescence for the negative control was determined to obtain the average blank fluorescence. The average blank fluorescence was subtracted from the fluorescence values obtained for all the test agents. The resulting values are the corrected fluorescence. […]
In general terms: Alamar Blue is a resazurin reagent that responds to reducing activity.

Assay [4] relates to E. coli DH10B recipient. Nature of the assay: CLSI broth microdilution MIC, E. coli DH10B recipient. Type of assay: cell-based. The method, then:
(§3) Four compounds, including Compound No. 8 of the present application (RX-04D) were tested against (i) multiresistant Enterobacteriaceae and Acinetobacter with carbapenemases; (ii) Enterobacteriaceae with MCR-1; and (iii) P. aeruginosa with altered efflux (see Tables 4 and 5). In this case, MCR-1 is relevant because its activity reduces the negative charge of lipopolysaccharides, potentially affecting binding of poly-basic molecules such as the compounds tested herein, as well as polymyxins.
(§4) MICs of the four tested compounds and comparators (amikacin, cefepime, colistin, meropenem and tigecyline) were determined by CLSI broth microdilution using pre-prepared plates (Trek Diagnostic Systems) (CLSI Approved Standard M7-A10). Carbapenemase and mcr-1 genes were detected by PCR or sequencing. Efflux levels in P. aeruginosa isolates were inferred by interpretive reading of antibiogram data.

Assay [5] concerns E. coli DH10B mcr-1 transformant. Put plainly: CLSI broth microdilution MIC, E. coli DH10B mcr-1 transformant. The assay is classed as cell-based. The method, then: as §3, §4
For assay [6], the system named is Enterobacteriaceae (n=68). Put plainly: CLSI broth microdilution MIC, Enterobacteriaceae panel. Type of assay: cell-based. As to conditions: 68 Enterobacteriaceae. The method, then:
as §3, §4

In assay [7] the test system is A. baumannii isolates (n=10). Put plainly: CLSI broth microdilution MIC, A. baumannii. Particulars: 10 A. baumannii. Type of assay: cell-based. The method, then:
as §3, §4

The test system of assay [8] is P. aeruginosa (n=20). Put plainly: CLSI broth microdilution MIC, P. aeruginosa. As to conditions: P. aeruginosa isolates; stated jointly for analogues C and D. Type of assay: cell-based. The protocol:
as §3, §4

The mark [9] stands for this setting: Escherichia coli, DH10BRECIPIENT, read-out: MIC.

Experimental findings from patent US10815237B2, “Antimicrobials and methods of making and using same” (BIOVERSYS AG, priority 2016, dated 2020) are described below.

Converted amounts (≈) assume the structure as drawn. Like-named read-outs stand apart in the source and are kept apart here. Where only a bound is given, the exact number is not on record here.

For `C[C@H](N)CCCc1cc(Cl)c(F)c(-c2cc3cn(-c4ccc([C@@H]5CCC[C@@H](CCNC(=N)CN)N5)cc4)c(=O)nc3[nH]2)c1` [Compound 8], the MIC was no more than 16 µg/mL in assay [1], no more than 16 µg/mL in assay [2], 1 µg/mL (≈ 1.65 µM) in assay [4] (setting [9]) and 1 µg/mL (≈ 1.65 µM) in assay [5] (Escherichia coli). Also, the IC50 in assay [3] is 95.2 µM. For the same compound, the “peak of unimodal MIC distribution” value in assay [6] was 2 µg/mL. Also, in assay [7], the “relative activity among analogues” value was “least active analogue”. Moreover, the “share of MICs ≥16 mg/L” value in assay [8] turned out to be 48%.

As for `C[C@H](N)CCCc1cc(Cl)c(F)c(-c2cc3cn(-c4ccc([C@@H]5CCC[C@@H](CCNC(=N)[C@H](N)CO)N5)cc4)c(=O)nc3[nH]2)c1` [Compound 58], the MIC in assay [1] and in assay [2] was no more than 16 µg/mL each time. This compound returned a concentration for half-maximal inhibition (IC50) in assay [3] greater than 100 µM.

As for `C[C@H](N)CCCc1cc(Cl)c(F)c(-c2cc3cn(-c4ccc([C@@H]5CCC[C@@H](CCNC(=N)[C@@H](C)N)N5)cc4)c(=O)nc3[nH]2)c1` [Compound 59], the MIC in assay [1] and in assay [2] was no more than 16 µg/mL in each case. Further, the IC50 in assay [3] was greater than 100 µM.

For `C[C@H](N)CCCc1cc(Cl)c(F)c(-c2cc3cn(-c4ccc([C@@H]5CCC[C@@H](CCNC(=N)[C@H](C)N)N5)cc4)c(=O)nc3[nH]2)c1` [Compound 60], the minimal inhibitory concentration (MIC) in assay [1] and in assay [2] was no more than 16 µg/mL each time. The half-inhibitory concentration (IC50) in assay [3] was greater than 100 µM.

In the case of `C=C[C@H](N)CCCc1cc(Cl)c(F)c(-c2cc3cn(-c4ccc([C@@H]5CCC[C@@H](CCNC(=N)CN)N5CCCF)c(SC)c4)c(=O)nc3[nH]2)c1` [Compound 61], the minimal inhibitory concentration (MIC) in assay [1] and in assay [2] was no more than 16 µg/mL each time. The compound also registered an IC50 in assay [3] of 13.6 µM.

`C=C[C@H](N)CCCc1cc(-c2cc3cn(-c4cc(F)c([C@@H]5CCC[C@@H](CCNC(=N)CN)N5CCCF)c(SC)c4)c(=O)nc3[nH]2)cc(C(F)(F)F)c1` [Compound 62]: the MIC was no more than 16 µg/mL in assay [1] and greater than 16 µg/mL in assay [2]. The IC50 in assay [3] is greater than 100 µM.

For `C=C[C@H](N)CCCc1cc(-c2cc3cn(-c4ccc([C@@H]5CCC[C@@H](CCNC(=N)CN)N5CCCF)c(F)c4)c(=O)nc3[nH]2)cc(C(F)(F)F)c1` [Compound 63], the minimal inhibitory concentration (MIC) in assay [1] and in assay [2] was no more than 16 µg/mL in each case. For the same compound, the IC50 in assay [3] is greater than 100 µM.

For the compound `C=C[C@H](N)CCCc1cc(Cl)c(F)c(-c2cc3cn(-c4ccc([C@@H]5CCC[C@@H](CCNC(=N)CN)N5CCCF)cc4)c(=O)nc3[nH]2)c1` [Compound 64], the MIC in assay [1] and in assay [2] was no more than 16 µg/mL in each case. In assay [3], this compound returned an IC50 greater than 100 µM.

Turning to `C=C[C@H](N)CCCc1cc(Cl)c(F)c(-c2cc3cn(-c4cc(F)c([C@@H]5CCC[C@@H](CCNC(=N)CN)N5CCCF)c(SC)c4)c(=O)nc3[nH]2)c1` [Compound 65], the MIC in assay [1] and in assay [2] was no more than 16 µg/mL in each case. Moreover, the IC50 in assay [3] amounted to 5.2 µM.

`C=C[C@H](N)CCCc1cc(Cl)c(F)c(-c2cc3cn(-c4ccc([C@@H]5CCC[C@@H](CCNC(=N)CN)N5CCCF)c(F)c4)c(=O)nc3[nH]2)c1` [Compound 66]: the MIC in assay [1] and in assay [2] was no more than 16 µg/mL each time. Moreover, the IC50 in assay [3] turned out to be 37.3 µM.

With `CNCC(=N)NCC[C@@H]1CCC[C@@H](c2ccc(-n3cc4cc(-c5cc(CCC[C@H](C)N)cc(Cl)c5F)[nH]c4nc3=O)cc2)N1` [Compound 67], the MIC in assay [1] and in assay [2] was no more than 16 µg/mL throughout. In assay [3], this compound came in with an IC50 greater than 100 µM.

In the case of `C[C@H](N)CCCc1cc(Cl)c(F)c(-c2cc3cn(-c4ccc([C@@H]5CCC[C@@H](CNC(=N)CN)N5)cc4)c(=O)nc3[nH]2)c1` [Compound 68], the minimal inhibitory concentration (MIC) in assay [1] and in assay [2] was no more than 16 µg/mL in each case. In assay [3], this compound showed an IC50 of 85.3 µM.

`Cc1c2cc(-c3cc(CCC[C@H](C)N)cc(Cl)c3F)[nH]c2nc(=O)n1-c1ccc([C@@H]2CCC[C@@H](CCNC(=N)CN)N2)cc1` [Compound 69]: the minimum inhibitory concentration (MIC) in assay [1] and in assay [2] was no more than 16 µg/mL each time. In assay [3], this compound registered a half-maximal inhibitory concentration (IC50) greater than 100 µM.

Turning to `CC(=N)NCC[C@@H]1CCC[C@@H](c2ccc(-n3cc4cc(-c5cc(CCC[C@@H](N)CO)cc(Cl)c5F)[nH]c4nc3=O)cc2F)N1` [RX-04B], the minimum inhibitory concentration (MIC) in assay [4] (setting [9]) and in assay [5] (Escherichia coli) was 0.5 µg/mL (≈ 0.799 µM) each time. In addition, the “peak of unimodal MIC distribution” value in assay [6] was found to be 1 µg/mL.

As to `CSc1cc(-n2cc3cc(-c4cc(CCC[C@@H](N)C5CC5)cc(Cl)c4F)[nH]c3nc2=O)ccc1[C@@H]1CCC[C@@H](CCNC(C)=N)N1` [RX-04C], the minimum inhibitory concentration (MIC) in assay [4] (setting [9]) and in assay [5] (Escherichia coli) was 0.5 µg/mL (≈ 0.753 µM) throughout. The “peak of unimodal MIC distribution” value in assay [6] is 2 µg/mL. The “share of MICs ≥16 mg/L” value in assay [8] was 48%.

On to colistin [reference compound], for which the entries for the “MIC” value in assay [4] and in assay [5] (E. coli DH10B MCR-1 Transformant) were 0.25 µg/mL and 4 µg/mL, respectively.

In general, MIC refers to the smallest concentration in the dilution series that meets the test's criterion for growth inhibition. Broadly, the IC50 is the midpoint of a concentration-inhibition curve. A high value points to weaker potency in that assay.
